Test results reported in patent publication US6294562A, “Salts of ethyl 3-(2-(4-(4-amino-imino-methyl)phenyl)-4-methyl-2,5-dioxo-imidazolidin-1-yl )acetylamino)-3-phenylpropionate” (Hoechst Aktiengesellschaft, priority 1996, dated 2001).

How the values were obtained:
[1] = Determination of water vapor sorption (automatic two-limbed microbalance, 25° C.); assay type: physicochemical
Procedure: The water uptake of a substance was determined using an automatic two-limbed microbalance which is operated in vacuo or in an atmosphere which has a defined composition or a defined pressure. The dry sample is located on one side of the balance and a taring weight is located on the other side. A water vapor atmosphere, whose pressure was increased stepwise, was generated in the weighing space. The increase in weight of the sample as a function of the water vapor pressure was recorded. The measurement was carried out at a constant temperature of 25° C.
The weighing space was first of all evacuated to constant weight and the starting weight of the sample was determined. A defined quantity of water vapor was then passed into the evacuated weighing space through an inlet valve. In the experiment which is reproduced below, the water vapor pressure which was set in this first step corresponds, at the measuring temperature of 25° C., to a relative atmospheric humidity of 4.7%. When constant weight was once again reached after passing in the water vapor, i.e. when the sample was in equilibrium with the water vapor atmosphere, the increase in weight of the sample was recorded. After that, the water vapor pressure was increased in several steps by passing in further water vapor (with each water vapor pressure corresponding to a defined relative atmospheric humidity at the measuring temperature of 25° C.). In each step, the increase in weight of the sample was recorded after constant weight had been reached. When ethyl (S)-3-(2-((S)-4-(4-(amino-imino-methyl)phenyl)-4-methyl-2,5-dioxo-imidazolidin-1-yl)-acetylamino)-3-phenylpropionate hydrogen maleate was examined, the following weight increases, based on the starting weight of the sample, were observed.

[2] = test system: coronary cyclic flow variations (recurrent formation of platelet rich thrombi); assay: Coronary cyclic flow variations in dogs (model of unstable angina); assay type: in vivo, dog
Excerpt: (§1) Dogs of either sex (20-35 kg) were anesthetized (Ketamine plus sodium pentobarbital infusion), ventilated and instrumented for the measurement of hemodynamic parameters (peripheral and left ventricular blood pressure, myocardial contractility, heart rate), and ECG. Blood gases and hematocrit were kept constant by infusion of electrolytes. After a left thoracotomy, the heart was exposed and the left circumflex coronary artery (LCX) was instrumented with an electromagnetic flow probe to measure mean coronary blood flow. Distal to the flow probe, the LCX was shortly squeezed with forceps in order to damage the endothelium, and a small concentrically constricting plastic cylinder was placed onto the damaged site (between 1.0 and 1.7 mm inner diameter, depending on the size of the LCX, and 4 mm length). The constrictor abolished the reactive hyperemic response to a 10 second occlusion of the LCX and initiated the appearance of flow cycles (approx. 10 per hour) resulting from recurrent formation of platelet rich thrombi at the stenosed site. After 60 min of regular cyclic flow variations, the test compounds were administered by intravenous or intraduodenal bolus application. Cyclic flow variations were further monitored for at least 2 to 5 hours. Percent inhibition of coronary thrombotic cyclic flow variations was calculated by comparison of the mean number of cyclic flow variations per hour before and after administration of the compound in 5 to 8 animals. In control animals, the number of cyclic flow variations per hour remained constant for several hours. (References: Folts, J. D. et al. (1976), Circulation 54: 365-370; Just, M. et al. (1989), J. Cardiovasc. Pharmacol. 14 (suppl. 11): S 129-136)
When ethyl (S)-3-(2-((S)-4-(4-(amino-imino-methyl)phenyl)-4methyl-2,5-dioxoimidazolidin-1-yl)acetylamino)-3-phenylpropionate hydrogen maleate was examined the following results were obtained. Given is the percent reduction of the number of stenosis induced coronary cyclic flow variations (CFV's) per hour in the first, the second and the third hour after administration of the test compound as compared to the predrug period. The dose is given in mg per kg of body weight.

[3] = test system: ADP-induced ex vivo platelet aggregation; assay: Ex vivo platelet aggregation inhibition in dogs, ADP-induced; parameters: species or system dog; conditions: for Inhibition of aggregation: ADP
Procedure: (§2) Dogs of either sex (mixed breed of Labrador/Harrier, body weight 21-28 kg) were fasted overnight. The test compounds were administered orally in gelatine capsules or intravenously. Before administration of the test compounds and several times during 24 hours thereafter, 20 ml of blood were withdrawn from the cephalic vein into acid citrate dextrose (9+1volumes). Platelet rich plasma (PRP) was obtained by centrifugation. Platelet aggregation was measured in PRP after addition of either ADP (3-30 μmol/l) or collagen (0.3-10 μg/ml) plus epinephrine (10 μM) at 37° C. in an aggregometer (BioData). Percent of maximal aggregation before and after drug administration was compared. The percent inhibition of aggregation at the lowest concentration of the agonist which induced irreversible maximal aggregation is given. In addition, the cutaneous bleeding time was measured at the shaved inner forearm using the Simplate® 1 device at the times of blood collection. Percent prolongation of bleeding time after drug administration as compared to the predrug value is calculated.
(§3) When ethyl (S)-3-(2-( (S)-4-(4-(amino-imino-methyl) phenyl)-4-methyl-2,5-dioxoimidazolidin-1-yl)acetylamino)-3-phenylpropionate hydrogen maleate was examined the following results were obtained. Given is the percent inhibition of platelet aggregation 1 h, 4 h, 8 h and 24 h after administration of the test substance. The dose is given in mg per kg body weight. n is the number of dogs tested.

[4] = test system: collagen induced ex vivo platelet aggregation; assay: Ex vivo platelet aggregation inhibition in dogs, collagen induced; parameters: species or system dog; conditions: collagen plus epinephrine
Procedure: as §2, §3

[5] = Cutaneous bleeding time in dogs (Simplate 1 device); assay type: in vivo, dog; conditions: for maximal prolongation of bleeding time: p<0.05
Procedure: as §2

[6] = Hemodynamic parameters in the coronary cyclic flow variation model in dogs; assay type: in vivo, dog; conditions: all hemodynamic parameters, intravenous or intraduodenal
Excerpt: as §1, with “After 60 min of regular cyclic flow variations, the test compounds were administered by intravenous or intraduodenal bolus application.” left out, “In control animals, the number of cyclic flow variations per hour remained constant for several hours. (References: Folts, J. D. et al. (1976), Circulation 54: 365-370; Just, M. et al. (1989), J. Cardiovasc. Pharmacol. 14 (suppl. 11): S 129-136)” left out

[7] = Solid state form and hygroscopicity, as stated in the description; assay type: physicochemical; conditions: hydrochloride salts
[8] = 0.5 mg/kg intravenously, n=6, after 1 h
[9] = 0.5 mg/kg intravenously, n=6, after 4 h
[10] = 0.5 mg/kg intravenously, n=6, after 8 h
[11] = 0.5 mg/kg intravenously, n=6, after 24 h
[12] = 0.5 mg/kg orally, n=6, after 1 h
[13] = 0.5 mg/kg orally, n=6, after 4 h
[14] = 0.5 mg/kg orally, n=6, after 8 h
[15] = 0.5 mg/kg orally, n=6, after 24 h
[16] = 1 mg/kg orally, n=6, after 24 h
[17] = 2 mg/kg orally, n=8, after 24 h

## CCOC(=O)C[C@H](NC(=O)CN1C(=O)N[C@@](C)(c2ccc(C(=N)N)cc2)C1=O)c1ccccc1.O=C(O)/C=C\C(=O)O [Ethyl (S)-3-(2-((S)-4-(4-(amino-imino-methyl)phenyl)-4-methyl-2,5-dioxo-imidazolidin-1-yl)acetylamino)-3-phenylpropionate hydrogen maleate]
[1]; 25° C.
  hygroscopicity: not hygroscopic
[1]; relative atmospheric humidity of approx. 80%
  increase in weight: approx. 0.5%
[1]; relative humidity 4.7%, 25° C.
  Increase in weight of the sample: 0.06%
[1]; relative humidity 18.5%, 25° C.
  Increase in weight of the sample: 0.11%
[1]; relative humidity 32.8%, 25° C.
  Increase in weight of the sample: 0.16%
[1]; relative humidity 49.6%, 25° C.
  Increase in weight of the sample: 0.23%
[1]; relative humidity 64.7%, 25° C.
  Increase in weight of the sample: 0.33%
[1]; relative humidity 75.5%, 25° C.
  Increase in weight of the sample: 0.43%
[1]; relative humidity 82.1%, 25° C.
  Increase in weight of the sample: 0.54%
[2]; 0.1 mg/kg intraduodenally, first hour
  Reduction of CFV's: 39%
[2]; 0.1 mg/kg intraduodenally, second hour
  Reduction of CFV's: 62%
[2]; 0.1 mg/kg intraduodenally, third hour
  Reduction of CFV's: 74%
[2]; 0.1 mg/kg intravenously, first hour
  Reduction of CFV's: 52%
[2]; 0.1 mg/kg intravenously, second hour
  Reduction of CFV's: 81%
[2]; 0.1 mg/kg intravenously, third hour
  Reduction of CFV's: 89%
[2]; 0.2 mg/kg intravenously, first hour
  Reduction of CFV's: 75%
[2]; 0.2 mg/kg intravenously, second hour
  Reduction of CFV's: 96%
[2]; 0.2 mg/kg intravenously, third hour
  Reduction of CFV's: 99%
[2]; 0.3 mg/kg intraduodenally, first hour
  Reduction of CFV's: 23%
[2]; 0.3 mg/kg intraduodenally, second hour
  Reduction of CFV's: 66%
[2]; 0.3 mg/kg intraduodenally, third hour
  Reduction of CFV's: 78%
[2]; dog, in vivo
  antithrombotic activity: powerful antithrombotic activity
[3]; [8]
  Inhibition of aggregation: 93%
[3]; [9]
  Inhibition of aggregation: 88%
[3]; [10]
  Inhibition of aggregation: 59%
[3]; [11]
  Inhibition of aggregation: 16%
[3]; [12]
  Inhibition of aggregation: 46%
[3]; [13]
  Inhibition of aggregation: 83%
[3]; [14]
  Inhibition of aggregation: 33%
[3]; [15]
  Inhibition of aggregation: 18%
[3]; 1 mg/kg orally, n=6, after 1 h
  Inhibition of aggregation: 76%
[3]; 1 mg/kg orally, n=6, after 4 h
  Inhibition of aggregation: 97%
[3]; 1 mg/kg orally, n=6, after 8 h
  Inhibition of aggregation: 86%
[3]; [16]
  Inhibition of aggregation: 70%
[3]; 2 mg/kg orally, n=8, after 1 h
  Inhibition of aggregation: 64%
[3]; 2 mg/kg orally, n=8, after 4 h
  Inhibition of aggregation: 86%
[3]; 2 mg/kg orally, n=8, after 8 h
  Inhibition of aggregation: 78%
[3]; [17]
  Inhibition of aggregation: 49%
[3]; in words, ADP- and collagen-induced
  efficacy as inhibitor of platelet aggregation: pronounced efficacy
[4]; [8]
  Inhibition of aggregation: 27%
[4]; [9]
  Inhibition of aggregation: 26%
[4]; [10]
  Inhibition of aggregation: 18%
[4]; [11]
  Inhibition of aggregation: 0%
[4]; [12]
  Inhibition of aggregation: 8%
[4]; [13]
  Inhibition of aggregation: 19%
[4]; [14]
  Inhibition of aggregation: 5%
[4]; [15]
  Inhibition of aggregation: 0%
[4]; 1 mg/kg orally, n=6, after 1 h
  Inhibition of aggregation: 36%
[4]; 1 mg/kg orally, n=6, after 4 h
  Inhibition of aggregation: 67%
[4]; 1 mg/kg orally, n=6, after 8 h
  Inhibition of aggregation: 50%
[4]; [16]
  Inhibition of aggregation: 11%
[4]; 2 mg/kg orally, n=8, after 1 h
  Inhibition of aggregation: 28%
[4]; 2 mg/kg orally, n=8, after 4 h
  Inhibition of aggregation: 65%
[4]; 2 mg/kg orally, n=8, after 8 h
  Inhibition of aggregation: 60%
[4]; [17]
  Inhibition of aggregation: 20%
[5]; 0.5 mg/kg intravenous, at 4 hours
  maximal prolongation of bleeding time: 68%
[5]; 2 mg/kg oral, at 2 hours
  maximal prolongation of bleeding time: 122%
[5]; at the lower oral doses (0.5 and 1 mg/kg)
  bleeding times: not significantly changed
[6]
  hemodynamic parameters recorded during the test: not significantly changed

## CCOC(=O)C[C@@H](NC(=O)CN1C(=O)N[C@](C)(c2ccc(C(=N)N)cc2)C1=O)c1ccccc1 [ethyl (R)-3-(2-((R)-4-(4-(amino-imino-methyl)phenyl)-4-methyl-2,5-dioxo-imidazolidin-1-yl)acetylamino)-3-phenylpropionate]
[7]
  solid state form: amorphous and cannot be obtained in the crystalline state

## CCOC(=O)C[C@@H](NC(=O)CN1C(=O)N[C@@](C)(c2ccc(C(=N)N)cc2)C1=O)c1ccccc1 [ethyl (R)-3-(2-((S)-4-(4-(amino-imino-methyl)phenyl)-4-methyl-2,5-dioxoimidazolidin-1-yl)acetylamino)-3-phenylpropionate]
[7]
  solid state form: amorphous and cannot be obtained in the crystalline state

## CCOC(=O)C[C@H](NC(=O)CN1C(=O)N[C@](C)(c2ccc(C(=N)N)cc2)C1=O)c1ccccc1 [ethyl (S)-3-(2-((R)-4-(4-(amino-imino-methyl)phenyl)-4-methyl-2,5-dioxoimidazolidin-1-yl)-acetylamino)-3-phenylpropionate]
[7]
  solid state form: amorphous and cannot be obtained in the crystalline state

## CCOC(=O)C[C@H](NC(=O)CN1C(=O)N[C@@](C)(c2ccc(C(=N)N)cc2)C1=O)c1ccccc1 [ethyl (S)-3-(2-((S)-4-(4-(amino-imino-methyl)phenyl)-4-methyl-2,5-dioxoimidazolidin-1-yl)acetylamino)-3-phenylpropionate]
[7]
  solid state form: amorphous and cannot be obtained in the crystalline state
